From US20240317755A1, “HETEROCYCLIC COMPOUND, AND INTERMEDIATE THEREOF, PREPARATION METHOD THEREFOR AND USE THEREOF” (WUHAN LL SCIENCE AND TECHNOLOGY DEVELOPMENT CO., LTD., priority 2021, published 2024)
Read-outs that look alike come from different tables or passages of the source.

Columns and labels:
[1] = Liver microsome half-life assay, rat; assay type: in vitro ADME; conditions: liver microsomes, 1 mg/mL liver microsomal protein, 37° C., read-out: Liver microsome T½ (min) Rat
Description: (§1) The in vitro metabolic stability of the compounds of the present disclosure was determined using warm incubation method of liver microsomes in various species. A proper amount of test compound was added to the liver microsomal reaction system (1 mg/mL liver microsomal protein, 25 U/mL glucose-6-phosphate dehydrogenase, 1 mM NADP, 6 mM D-glucose 6-phosphate, 5 mM MgCl2), and the reaction was started by warm incubation in a water bath at 37° C., then 100 μL of the reaction mixture at each time point was added to a centrifuge tube containing 400 μL of internal standard working solution precooled at 0° C. (containing a solution of 200 ng/mL dexamethasone, diclofenac, tolbutamide, and labetalol in acetonitrile), then the reaction was terminated, centrifuged at 4° C. and 10,000 g for 10 min, and the supernatant was taken into LC-MS for analysis and detection to obtain in vitro metabolic half-lives of the test compounds in liver microsomes of various species.

[2] = Liver microsome half-life assay, monkey; assay type: in vitro ADME; conditions: liver microsomes, 1 mg/mL liver microsomal protein, 37° C., read-out: Liver microsome T½ (min) Monkey
Description: as §1

[3] = Liver microsome half-life assay, human; assay type: in vitro ADME; conditions: human, liver microsomes; 1 mg/mL liver microsomal protein, 37° C.; read-out: Liver microsome T½ (min) Human
Description: as §1

TRPC5 channel = TRPC5 channel (Homo sapiens (Human), UniProt Q9UL62); test: TRPC5 calcium flux assay (Fluo-4, FLIPR) in TRPC5-HEK 293 cells; assay type: cell-based; conditions: 0.3 nM Englerin A
TRPC5 channel, sequence (Q9UL62 whole entry): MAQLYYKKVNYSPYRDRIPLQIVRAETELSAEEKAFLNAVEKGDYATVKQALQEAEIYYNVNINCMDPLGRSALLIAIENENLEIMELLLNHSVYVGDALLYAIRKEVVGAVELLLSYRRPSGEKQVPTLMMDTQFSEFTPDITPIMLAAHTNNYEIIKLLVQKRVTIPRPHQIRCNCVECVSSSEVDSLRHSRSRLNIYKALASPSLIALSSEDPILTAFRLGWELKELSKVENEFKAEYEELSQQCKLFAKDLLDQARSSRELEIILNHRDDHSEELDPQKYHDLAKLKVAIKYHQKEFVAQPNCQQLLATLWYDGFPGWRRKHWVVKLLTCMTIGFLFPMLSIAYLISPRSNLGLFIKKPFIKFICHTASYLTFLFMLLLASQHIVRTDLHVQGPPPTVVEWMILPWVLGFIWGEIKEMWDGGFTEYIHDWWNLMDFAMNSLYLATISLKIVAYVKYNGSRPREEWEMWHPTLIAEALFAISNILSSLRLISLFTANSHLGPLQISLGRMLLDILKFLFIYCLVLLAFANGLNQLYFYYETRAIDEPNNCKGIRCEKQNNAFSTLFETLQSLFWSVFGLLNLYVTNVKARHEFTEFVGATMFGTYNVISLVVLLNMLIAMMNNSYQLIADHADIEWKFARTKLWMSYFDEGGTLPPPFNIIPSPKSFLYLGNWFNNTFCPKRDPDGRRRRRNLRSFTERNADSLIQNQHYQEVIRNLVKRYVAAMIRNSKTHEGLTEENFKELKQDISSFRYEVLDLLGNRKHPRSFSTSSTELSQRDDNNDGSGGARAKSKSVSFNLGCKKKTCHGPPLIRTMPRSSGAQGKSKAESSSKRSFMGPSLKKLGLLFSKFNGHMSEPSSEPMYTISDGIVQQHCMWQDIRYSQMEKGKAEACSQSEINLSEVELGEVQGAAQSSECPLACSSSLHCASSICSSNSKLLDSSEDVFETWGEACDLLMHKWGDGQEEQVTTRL
Description: TRPC5 is a type of non-selective cation channel with permeability to calcium ions. […] Fluo-4 AM fluorescence dye was used to indirectly reflect the effect of the compound on TRPC5 channel by detecting intracellular Ca^2+ in TRPC5-HEK 293 cells.
• Revival solution: 100% high glucose DMEM • Selection medium: high glucose DMEM+10% FBS+1% P/S+1% HEPES+Blasticidin (5 μg/mL)+Hygromycine (50 μg/mL) • Induction medium: high glucose DMEM+10% FBS+1% P/S+1% HEPES+Doxycycline (1 μg/mL)
(§2) 14 hours before the real-time fluorescence experiment, cells were washed with PBS and digested with trypsin-EDTA. Cells were diluted to 200,000 cells/mL with induction medium and seeded onto a 96-well black wall bottom transparent plate coated with poly-D-lysine (PDL) (stock solution of 10 mg/mL, final concentration of 10 μg/mL) at 100 μL/well, i.e., 20,000 cells/well.
500 mL of external solution for detecting TRPC5 calcium signals: 4.0908 g of NaCl, 0.1864 g of KCl, 0.111 g of CaCl2, 0.0476 g of MgCl2, 0.9 g of glucose, 1.1915 g of HEPES (2-[4-(2-hydroxyethyl)piperazin-1-yl]ethanesulfonic acid).
Calcium fluorescent dye: an external solution for detecting TRPC5 calcium signals containing Fluo-4 with a final concentration of 4 μM (containing 0.5% BSA)
Positive inhibitor concentration: 100 nM
The dose-effect diagram was used to calculate AUC (area under the curve of the curve formed by the calcium flux signal), and the data and the log of the compound concentration were collected. The IC50 value was calculated using log[Inhibitor] vs. response Variable slope.
TRPC5 is a type of non-selective cation channel with permeability to calcium ions. […] Fluo-4 AM fluorescence dye was used to indirectly reflect the effect of the compound on TRPC5 channel by detecting intracellular […] in TRPC5-HEK 293 cells.
1. Cell culture 1.1 Revival of TRPC5-HEK 293 cells • Revival solution: 100% high glucose DMEM • Selection medium: high glucose DMEM+10% FBS+1% P/S+1% HEPES+Blasticidin (5 μg/mL)+Hygromycine (50 μg/mL) • Induction medium: high glucose DMEM+10% FBS+1% P/S+1% HEPES+Doxycycline (1 μg/mL)
as §2, with “trypsin-EDTA (TE).” for “trypsin-EDTA.”

- half-life [1]: 174 min
- half-life [2]: 247 min
- half-life [3]: 531 min
- IC50 (TRPC5 channel; Table 1, read-out: TRPC5 inhibitory activity, IC50): 0.0115 µM
- IC50 (TRPC5 channel; Table 11, read-out: TRPC5 inhibitory activity, IC50): 0.0115 µM
Structure (SMILES): O=C(c1ccc(F)cc1C(F)(F)F)c1cnc2n1CCN(c1cn[nH]c(=O)c1Cl)C2 [Compound 1-6, 4-chloro-5-(3-(4-fluoro-2-(trifluoromethyl)benzoyl)-5,6-dihydroimidazo[1,2-a]pyrazin-7(8H)-yl)pyridazin-3(2H)-one]
